Results on four compounds are retold here after paper PMC7037682, “Herb–Drug Interaction of Red Ginseng Extract and Ginsenoside Rc with Valsartan in Rats” (Molecules, 2020).

As usually defined, the MRT is the average time that molecules of a dose stay in the body. For orientation: Vd means a proportionality between amount in the body and measured concentration, not a real space. A high value points to extensive tissue distribution. The term clearance denotes a measure of how efficiently the substance is removed, as volume per time. Higher therefore signals a high capacity for elimination. A word on the half-life: it is how long it takes for the measured level to halve. A word on the AUC(0-inf): it is the area under the concentration-time curve extrapolated to infinity.

Series [1] can be described thus: Plasma pharmacokinetics of ginsenosides in rats after 1-week repeated RGE. The settings on record: LC-MS/MS, after RGE 1.5 g/kg/day po for 1 week. As for the experimental part: The rats were randomly divided into the control and RGE groups. The RGE group received a RGE suspension (1.5 g/mL/kg/day, in distilled water) for 7 days via oral gavage. The control group received distilled water for 7 days via oral gavage. After 1 h following the last RGE treatment, valsartan was injected intravenously to both groups via the tail vein at 1 mg/mL/kg (dissolved in DMSO: saline = 2:8, v/v). […] After centrifugation of the blood samples at 16,000× g for 10 min, aliquots (50 μL each) of plasma samples were stored at −80 °C until the analysis of ginsenosides and valsartan.
The residue was reconstituted with 100 μL of 70% methanol consisting of 0.1% formic acid. An aliquot (20 μL) from the sample was injected into the LC-MS/MS system.
After freezing the aqueous layer at −80 °C for 2 h, the upper organic layer was transferred to a clean tube and evaporated to dryness. […] An aliquot (20 μL) from the sample was injected into the LC-MS/MS system. The samples were eluted through an Omega Polar C18 column (2.1 mm × 100 mm, 3 µm particle size) (Phenomenex, Torrance, CA, USA) using a mobile phase consisting of 0.1% formic acid in water: 0.1% formic acid in methanol (15:85, v/v) at a flow rate of 0.2 mL/min.
Pharmacokinetic parameters were calculated from plasma concentration-time profile using non-compartment analysis of WinNonlin (version 5.1; Pharsights, Cary, NC, USA). The statistical significance was assessed by t-test using Statistical Package for the Social Sciences (version 24.0; SPSS Inc., Chicago, IL, USA).

Series [2] relates to UGT1A9. The settings on record: cited from earlier work.
Series [3] can be described thus: in vivo. The settings on record: rat, iv, 1 mg/kg. On the procedure:
The rats were randomly divided into the control and rifampin groups. […] Quantification was performed in the selected reaction-monitoring mode at m/z 436.1 → 291.0 for valsartan and m/z 336.1 → 320.0 for berberine. […] The intraday and interday precision ranged from 1.80% to 9.23%.

The nature of series [4]: in vivo. The settings on record: rat, iv, 1 mg/kg. On the procedure: Quantification was performed in the selected reaction-monitoring mode at m/z 436.1 → 291.0 for valsartan and m/z 336.1 → 320.0 for berberine. […] The intraday and interday precision ranged from 1.80% to 9.23%.
The source holds these as a separate data set.

A short description of series [5]: Pharmacokinetics of iv valsartan in rats with or without repeated iv Rc. The series is classed as in vivo. The settings on record: rat, plasma, 1 mg/kg, valsartan 1 mg/kg iv; for AUC(0-t): read-out: AUC24h. On the procedure:
The rats were randomly divided into the control and Rc groups. The Rc group was injected with Rc solution (3 mg/mL/kg, dissolved in saline) intravenously via the tail vein for 5 consecutive days. The control group received saline (1 mL/kg) for 5 consecutive days via the tail vein. […] Quantification was performed in the selected reaction-monitoring mode at m/z 436.1 → 291.0 for valsartan and m/z 336.1 → 320.0 for berberine. […] The intraday and interday precision ranged from 1.80% to 9.23%.

Series [6] concerns Oatps. The settings on record: rats ref 29, 30; cited from earlier work.
Series [7] relates to OATP1B1 and OATP1B3. The settings on record: human ref 29, 30; cited from earlier work.
Series [8] addresses T1, OATP1B1 (Homo sapiens, UniProt Q9Y6L6).
T1 sequence (Q9Y6L6 1-691): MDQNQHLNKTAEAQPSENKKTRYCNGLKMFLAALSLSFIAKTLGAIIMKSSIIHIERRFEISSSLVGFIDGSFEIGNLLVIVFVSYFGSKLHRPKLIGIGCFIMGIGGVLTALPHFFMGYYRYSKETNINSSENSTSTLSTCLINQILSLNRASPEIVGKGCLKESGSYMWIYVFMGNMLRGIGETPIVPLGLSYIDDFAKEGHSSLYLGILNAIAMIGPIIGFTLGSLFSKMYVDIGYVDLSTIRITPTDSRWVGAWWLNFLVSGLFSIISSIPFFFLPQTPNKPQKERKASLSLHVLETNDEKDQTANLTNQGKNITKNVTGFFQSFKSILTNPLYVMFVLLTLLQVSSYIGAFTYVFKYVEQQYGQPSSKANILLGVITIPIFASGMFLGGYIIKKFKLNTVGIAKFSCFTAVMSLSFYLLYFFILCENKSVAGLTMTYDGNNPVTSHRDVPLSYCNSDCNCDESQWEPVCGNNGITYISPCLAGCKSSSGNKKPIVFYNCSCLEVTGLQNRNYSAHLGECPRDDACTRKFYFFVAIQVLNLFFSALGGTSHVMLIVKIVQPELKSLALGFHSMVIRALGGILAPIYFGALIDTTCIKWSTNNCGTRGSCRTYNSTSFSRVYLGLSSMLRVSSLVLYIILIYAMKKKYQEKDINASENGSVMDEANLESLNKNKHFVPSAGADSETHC
The series can be described thus: Valsartan uptake by HEK293-OATP1B1 cells versus mock cells. It counts as cell-based. Also noted: host or cells: HEK293. The settings on record: 5 μM valsartan. On the procedure: (§1) The uptake of valsartan 5 (μM)was measured for 5 min immediately after adding aliquots (100 μL) of HBSS containing 5 μM valsartan in the presence or absence of rifampin (1–100 μM) or tri-glycosylated PPD-type ginsenosides (Rb1, Rb2, and Rc; 0.1–100 μM) to the HEK293-mock cells and HEK293-OATP1B1 and –OAPT1B3 cells after aspirating pre-incubated HBSS. […] After the centrifugation of cell lysate samples (16,000× g, 5 min, 4 °C), aliquots (4 μL) of cell lysate samples were injected into LC-MS/MS system for the analysis of valsartan. Transporter mediated uptake of probe substrates or valsartan was calculated by subtracting the uptake rate of probe substrates or valsartan into HEK293-mock cells from that into HEK293 cells expressing respective transporters.

The target of series [9] is T2, OATP1B3 (Homo sapiens, UniProt Q9NPD5).
T2 sequence (Q9NPD5 1-702): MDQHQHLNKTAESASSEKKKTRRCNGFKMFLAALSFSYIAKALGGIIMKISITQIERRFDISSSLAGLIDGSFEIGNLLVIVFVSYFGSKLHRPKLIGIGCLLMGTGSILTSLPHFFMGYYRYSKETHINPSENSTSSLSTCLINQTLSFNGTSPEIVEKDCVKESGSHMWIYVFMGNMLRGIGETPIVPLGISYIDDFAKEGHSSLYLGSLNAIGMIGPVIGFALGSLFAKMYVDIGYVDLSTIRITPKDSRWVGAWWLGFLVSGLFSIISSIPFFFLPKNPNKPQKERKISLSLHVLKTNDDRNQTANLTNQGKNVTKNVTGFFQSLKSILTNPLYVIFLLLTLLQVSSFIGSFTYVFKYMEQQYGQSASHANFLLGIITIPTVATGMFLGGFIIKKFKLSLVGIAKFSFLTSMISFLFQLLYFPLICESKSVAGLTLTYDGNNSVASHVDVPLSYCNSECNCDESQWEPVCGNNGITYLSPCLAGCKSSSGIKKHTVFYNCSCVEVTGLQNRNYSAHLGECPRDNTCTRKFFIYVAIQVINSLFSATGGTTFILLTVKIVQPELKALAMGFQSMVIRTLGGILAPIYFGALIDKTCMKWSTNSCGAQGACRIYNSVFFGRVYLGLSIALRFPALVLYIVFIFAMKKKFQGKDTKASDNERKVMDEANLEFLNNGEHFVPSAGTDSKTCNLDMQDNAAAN
The series can be described thus: Valsartan uptake by HEK293-OATP1B3 cells versus mock cells. More on the design: host or cells: HEK293. The series is classed as cell-based. The settings on record: 5 μM valsartan. On the procedure:
as §1

[10] abbreviates: after Rc 3 mg/kg/day iv for 5 days.

As to `CC(C)=CCC[C@](C)(O[C@@H]1O[C@H](CO)[C@@H](O)[C@H](O)[C@H]1O)[C@H]1CC[C@]2(C)[C@@H]1[C@H](O)C[C@@H]1[C@@]3(C)CC[C@H](O)C(C)(C)[C@@H]3[C@@H](O)C[C@]12C` [F1], the “detection in rat plasma” value in [1] is given as “not detected”. Further, the “IC50 UGT1A9” value in series [2] is listed as “did not inhibit”.

With `CCCCC(=O)N(Cc1ccc(-c2ccccc2-c2nnn[nH]2)cc1)[C@H](C(=O)O)C(C)C` [Valsartan, valsartan], the C0 is 1633.08 ± 1308.67 ng/mL in [3]; 1170 ± 119 ng/mL in [3] (C0); 781.47 ± 211.04 ng/mL in series [4]; 648 ± 50.5 ng/mL in series [4] (C0); 1450 ± 998 ng/mL in [5] (setting [10]); 401 ± 77.8 ng/mL in series [5] (control group of Rc study). Further, the MRT in series [3] came to 3.37 ± 0.83 h; in [3] (MRT), 2.99 ± 0.47 h; in series [4], 3.81 ± 0.05 h; in [4] (MRT), 3.76 ± 1.16 h; in series [5] (setting [10]), 2.94 ± 1.52 h; in [5] (control group of Rc study), 2.27 ± 0.67 h. For the same compound, the T1/2 in [3] was found to be 2.79 ± 0.32 h; in series [4] it was 4.59 ± 0.73 h. The volume of distribution (Vd) in [3] is 55.03 ± 26.29 mL/kg; in series [3] (Vd) it was 4700 ± 1540 mL/kg; in [4] it was 85.38 ± 25.82 mL/kg; in series [4] (Vd), 4330 ± 922 mL/kg; in series [5] (setting [10]), 3.46 ± 1.64 L/kg; in series [5] (control group of Rc study), 3.43 ± 0.794 L/kg. The clearance in series [3] (CL) came to 26 ± 6.3 mL/min/kg; in series [4] (CL) it was 20 ± 5.48 mL/min/kg; in series [5] (setting [10]) it was 20.2 ± 2.86 mL/min/kg; in series [5] (control group of Rc study), 25.7 ± 3.5 mL/min/kg. Moreover, the half-life in [3] (T1/2) is 269 ± 74.4 min; in series [4] (T1/2), 273 ± 58.8 min; in [5] (setting [10]), 198 ± 90.6 min; in series [5] (control group of Rc study), 145 ± 78 min. This compound also displayed an AUC24h in series [4] of 776.59 ± 228.82 ng·h/mL. Moreover, the AUC(0-t) in series [4] (AUC24h) was determined as 859 ± 234 ng·h/mL; in series [5] (setting [10]), 809 ± 112 ng·h/mL; in [5] (control group of Rc study), 639 ± 80.7 ng·h/mL. Besides, the AUC(0-inf) in series [4] (AUC∞) worked out at 882 ± 247 ng·h/mL; in [5] (setting [10]), 836 ± 112 ng·h/mL; in [5] (control group of Rc study), 657 ± 84.9 ng·h/mL. In addition, the “contribution of Oatp transporters in the hepato-biliary excretion” value in series [6] and in series [7] was 70–85% each time. Moreover, the “Valsartan uptake increase, HEK293-OATP1B1 vs HEK293-mock” value in [8] came out at 19.8 fold. Besides, the “Valsartan uptake increase, HEK293-OATP1B3 vs HEK293-mock” value in series [9] is given as 26.1 fold.

Consider `CC(C)=CCC[C@](C)(O)[C@H]1CC[C@]2(C)[C@@H]1[C@H](O)C[C@@H]1[C@@]3(C)CC[C@H](O)C(C)(C)[C@@H]3[C@@H](O[C@@H]3O[C@H](CO)[C@@H](O)[C@H](O)[C@H]3O[C@@H]3O[C@H](CO)[C@@H](O)[C@H](O)[C@H]3O)C[C@]12C` [Rf], for which the “IC50 UGT1A9” value in series [2] was “did not inhibit”.

Turning to `CC(C)=CCC[C@](C)(O[C@@H]1O[C@H](CO)[C@@H](O)[C@H](O)[C@H]1O)[C@H]1CC[C@]2(C)[C@@H]1[C@H](O)C[C@@H]1[C@@]3(C)CC[C@H](O[C@@H]4O[C@H](CO)[C@@H](O)[C@H](O)[C@H]4O)C(C)(C)[C@@H]3CC[C@]12C` [F2], the “detection in rat plasma” value in series [1] is reported as “not detected”.
